The term IC50 denotes the midpoint of a concentration-inhibition curve.

The text below walks through data of patent US9181277B2, “Aminoquinazoline derivatives and their salts and methods of use” (SUNSHINE LAKE PHARMA CO., LTD., priority 2011, dated 2015).

EGFR Kinase, sequence (P00533 25-1210): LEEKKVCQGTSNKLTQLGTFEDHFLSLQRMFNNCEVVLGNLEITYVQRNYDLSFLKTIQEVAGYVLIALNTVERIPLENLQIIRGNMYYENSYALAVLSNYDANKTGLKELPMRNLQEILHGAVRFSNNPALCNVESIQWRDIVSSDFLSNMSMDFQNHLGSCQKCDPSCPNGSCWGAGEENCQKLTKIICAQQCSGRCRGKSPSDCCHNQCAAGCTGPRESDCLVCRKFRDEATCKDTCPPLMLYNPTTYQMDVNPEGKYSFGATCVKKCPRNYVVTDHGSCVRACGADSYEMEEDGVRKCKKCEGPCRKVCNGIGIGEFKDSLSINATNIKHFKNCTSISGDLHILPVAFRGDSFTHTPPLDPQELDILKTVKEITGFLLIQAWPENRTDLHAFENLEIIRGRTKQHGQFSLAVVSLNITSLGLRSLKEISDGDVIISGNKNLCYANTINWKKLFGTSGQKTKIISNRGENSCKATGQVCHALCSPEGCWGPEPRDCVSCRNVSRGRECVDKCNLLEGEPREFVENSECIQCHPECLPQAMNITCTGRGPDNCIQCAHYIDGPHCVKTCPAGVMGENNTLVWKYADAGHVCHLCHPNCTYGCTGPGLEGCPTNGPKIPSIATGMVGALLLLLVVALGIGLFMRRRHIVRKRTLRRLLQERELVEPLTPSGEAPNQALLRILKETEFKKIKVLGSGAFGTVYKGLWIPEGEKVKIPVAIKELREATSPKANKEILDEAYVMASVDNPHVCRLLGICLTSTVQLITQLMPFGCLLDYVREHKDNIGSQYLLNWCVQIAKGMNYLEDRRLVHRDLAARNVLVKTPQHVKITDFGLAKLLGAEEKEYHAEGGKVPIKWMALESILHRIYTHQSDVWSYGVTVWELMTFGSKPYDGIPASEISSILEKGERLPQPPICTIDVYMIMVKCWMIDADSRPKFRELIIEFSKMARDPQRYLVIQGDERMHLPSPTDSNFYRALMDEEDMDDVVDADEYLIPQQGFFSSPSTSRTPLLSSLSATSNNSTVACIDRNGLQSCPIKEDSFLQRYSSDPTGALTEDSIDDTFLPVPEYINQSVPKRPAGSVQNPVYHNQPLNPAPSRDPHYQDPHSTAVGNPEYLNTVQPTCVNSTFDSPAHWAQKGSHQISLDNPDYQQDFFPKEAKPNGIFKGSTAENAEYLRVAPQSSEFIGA

The target in the assay is EGFR Kinase (Homo sapiens, UniProt P00533). Put plainly: EGFR inhibitory activity test (HTRF kinEASE STK S1 kinase assay). The format is biochemical. Conditions: replicate wells, read-out: IC50(nM), Inhibitory Activity of Compounds on EGFR Kinase. The procedure:
In a pilot study, the compounds disclosed herein were screened for their EGFR inhibitory activity. The Cisbio Research Product HTRF kinEASE STK S1 kinase assay/inhibitor screening Kit, can detect the generation of the phosphorylated substrate. Kinase, biotinylated substrate and ATP were first added into buffer solution, and the phosphorylated biotinylated substrates were formed by enzyme reaction. Then, to the above solution was added europium-labeled anti-phospho-site specific antibodies and XL665-labeled avidin. The Specific combinations of antibody with antigen, and biotin with avidin, bring the europium and XL665 closer together and resonance energy transferred. The signals at 620 nm and 665 nm were detected, and the activity of the kinase was evaluated by the ratio of the two signals value.
(In general: In TR-FRET formats the signal depends on donor and acceptor labels being close together.)
For `COc1cc2ncnc(Nc3ccc(F)c(Cl)c3)c2cc1OCCCN1CCn2c(nnc2C(F)(F)F)C1` [Example 1, N-(3-chloro-4-fluorophenyl)-7-methoxy-6-(3-(3-(trifluoromethyl)-5,6-dihydro-[1,2,4]triazolo[4,3-a]pyrazin-7(8H)-yl)propoxy)quinazolin-4-amine], the IC50 lay in the range of 1 to 10 nM.

For the compound `CCc1nnc2n1CCN(CCCOc1cc3c(Nc4ccc(F)c(Cl)c4)ncnc3cc1OC)C2` [Example 2, N-(3-chloro-4-fluorophenyl)-6-(3-(3-ethyl-5,6-dihydro-[1,2,4]triazolo[4,3-a]pyrazin-7(8H)-yl)propoxy)-7-methoxyquinazolin-4-amine], the half-inhibitory concentration (IC50) was more than 10 nM.

`COc1cc2ncnc(Nc3ccc(F)c(Cl)c3)c2cc1OCCCN1CCn2cnnc2C1` [Example 3, N-(3-chloro-4-fluorophenyl)-6-(3-(5,6-dihydro-[1,2,4]triazolo[4,3-a]pyrazin-7(8H)-yl)propoxy)-7-methoxyquinazolin-4-amine]: the concentration for half-maximal inhibition (IC50) fell in the range of 0.101 to 1 nM.

On to `COc1cc2ncnc(Nc3ccc(F)c(Cl)c3)c2cc1OCCCN1C[C@@H]2C[C@]2(O)C1` [Example 4, (1R,5S)-3-(3-((4-((3-chloro-4-fluorophenyl)amino)-7-methoxyquinazolin-6-yl)oxy)propyl)-3-azabicyclo[3.1.0]hexan-1-ol], for which the IC50 is 0.001 to 0.1 nM.

Regarding `COc1cc2ncnc(Nc3ccc(F)c(Cl)c3)c2cc1OCCCN1C[C@@H]2C[C@]2(N(C)C)C1` [Example 5], the IC50 was in the range of 0.101 to 1 nM.

Take `COc1cc2ncnc(Nc3ccc(F)c(Cl)c3)c2cc1OCCCN1CC2OCCOC2C1` (centres unmarked) [Example 6, N-(3-chloro-4-fluorophenyl)-7-methoxy-6-(3-(tetrahydro-2H-[1,4]dioxino[2,3-c]pyrrol-6(3H)-yl)propoxy)quinazolin-4-amine]: the 50% inhibitory concentration (IC50) was 0.001 to 0.1 nM.

`COc1cc2ncnc(Nc3ccc(F)cc3)c2cc1OCCCN1CC2OCCOC2C1` (centres unmarked) [Example 7, N-(4-fluorophenyl)-7-methoxy-6-(3-(tetrahydro-2H-[1,4]dioxino[2,3-c]pyrrol-6(3H)-yl)propoxy) quinazolin-4-amine]: the half-inhibitory concentration (IC50) was 1 to 10 nM.

Regarding `C#Cc1cccc(Nc2ncnc3cc(OC)c(OCCCN4CC5OCCOC5C4)cc23)c1` (centres unmarked) [Example 8, N-(3-ethynylphenyl)-7-methoxy-6-(3-(tetrahydro-2H-[1,4]dioxino[2,3-c]pyrrol-6(3H)-yl)propoxy)quinazolin-4-amine], the IC50 is 0.001 to 0.1 nM.

In the case of `C#Cc1cc(Nc2ncnc3cc(OC)c(OCCCN4CC5OCCOC5C4)cc23)ccc1F` (centres unmarked) [Example 9, N-(3-ethynyl-4-fluorophenyl)-7-methoxy-6-(3-(tetrahydro-2H-[1,4]dioxino[2,3-c]pyrrol-6(3H)-yl)propoxy)quinazolin-4-amine], the IC50 was in the range of 1 to 10 nM.

As for `COc1cc2ncnc(Nc3ccc(Br)cc3F)c2cc1OCCCN1CC2OCCOC2C1` (centres unmarked) [Example 10, N-(4-bromo-2-fluorophenyl)-7-methoxy-6-(3-(tetrahydro-2H-[1,4]dioxino[2,3-c]pyrrol-6(3H)-yl)propoxy)quinazolin-4-amine], the concentration for half-maximal inhibition (IC50) was more than 10 nM.

For the compound `COc1cc2ncnc(Nc3ccc(F)c(Cl)c3)c2cc1OCCCN1CC2CNCC2C1` (centres unmarked) [Example 11, N-(3-chloro-4-fluorophenyl)-6-(3-(hexahydropyrrolo[3,4-c]pyrrol-2(1H)-yl)propoxy)-7-methoxyquinazolin-4-amine], the IC50 was in the range of 0.001 to 0.1 nM.

In the case of `COc1cc2ncnc(Nc3ccc(F)c(Cl)c3)c2cc1OCCCN1CC2CN(C)CC2C1` (centres unmarked) [Example 12, N-(3-chloro-4-fluorophenyl)-7-methoxy-6-(3-(5-methylhexahydropyrrolo[3,4-c]pyrrol-2(1H)-yl)propoxy)quinazolin-4-amine], the IC50 lay in the range of 0.101 to 1 nM.

For `COc1cc2ncnc(Nc3ccc(F)c(Cl)c3)c2cc1OCCCN1CCC2CNCC21` (centres unmarked) [Example 13, N-(3-chloro-4-fluorophenyl)-6-(3-(hexahydropyrrolo[3,4-b]pyrrol-1(2H)-yl)propoxy)-7-methoxyquinazolin-4-amine], the IC50 lay within 0.001 to 0.1 nM.

In the case of `COc1cc2ncnc(Nc3ccc(F)c(Cl)c3)c2cc1OCCCN1CCC2CN(C(C)=O)CC21` (centres unmarked) [Example 14, 1-(1-(3-((4-((3-chloro-4-fluorophenyl)amino)-7-methoxyquinazolin-6-yl)oxy)propyl)hexahydropyrrolo[3,4-b]pyrrol-5(1H)-yl)ethanone], the IC50 was in the range of 1 to 10 nM.

Turning to `COc1cc2ncnc(Nc3ccc(F)c(Cl)c3)c2cc1OCCCN1CC2OCCN(C)C2C1` (centres unmarked) [Example 15, N-(3-chloro-4-fluorophenyl)-7-methoxy-6-(3-(4-methylhexahydropyrrolo[3,4-b][1,4]oxazin-6(2H)-yl)propoxy)quinazolin-4-amine], the half-maximal inhibitory concentration (IC50) is 0.101 to 1 nM.

On to `COc1cc2ncnc(Nc3ccc(F)c(Cl)c3)c2cc1OCCCN1CC2OCCN(Cc3ccccc3)C2C1` (centres unmarked) [Example 16, 6-(3-(4-benzylhexahydropyrrolo[3,4-b][1,4]oxazin-6(2H)-yl)propoxy)-N-(3-chloro-4-fluorophenyl)-7-methoxyquinazolin-4-amine], for which the IC50 is 1 to 10 nM.

With `COc1cc2ncnc(Nc3ccc(F)c(Cl)c3)c2cc1OCCCN1CCC2CCNC2C1` (centres unmarked) [Example 17, N-(3-chloro-4-fluorophenyl)-6-(3-(hexahydro-1H-pyrrolo[2,3-c]pyridin-6(2H)-yl)propoxy)-7-methoxyquinazolin-4-amine], the concentration for half-maximal inhibition (IC50) was in the range of 0.001 to 0.1 nM.

For the compound `COc1cc2ncnc(Nc3ccc(F)c(Cl)c3)c2cc1OCCCN1CCC2CCN(C)C2C1` (centres unmarked) [Example 18, N-(3-chloro-4-fluorophenyl)-7-methoxy-6-(3-(1-methylhexahydro-1H-pyrrolo[2,3-c]pyridin-6(2H)-yl)propoxy)quinazolin-4-amine], the 50% inhibitory concentration (IC50) lay in the range of 0.001 to 0.1 nM.

For `COc1cc2ncnc(Nc3ccc(F)c(Cl)c3)c2cc1OCCCN1CCC2NCCC2C1` (centres unmarked) [Example 19, N-(3-chloro-4-fluorophenyl)-6-(3-(hexahydro-1H-pyrrolo[3,2-c]pyridin-5(6H)-yl)propoxy)-7-methoxyquinazolin-4-amine], the IC50 fell in the range of 0.001 to 0.1 nM.

On to `COc1cc2ncnc(Nc3ccc(F)c(Cl)c3)c2cc1OCCCN1CC2CCOC(=O)C2C1` (centres unmarked) [Example 20, 2-(3-((4-((3-chloro-4-fluorophenyl)amino)-7-methoxyquinazolin-6-yl)oxy)propyl)hexahydropyrano[3,4-c]pyrrol-4(2H)-one], for which the IC50 was 0.001 to 0.1 nM.

Regarding `COc1cc2ncnc(Nc3ccc(F)c(Cl)c3)c2cc1OCCCN1CC2CCCC2C1` (centres unmarked) [Example 21, N-(3-chloro-4-fluorophenyl)-6-(3-(hexahydrocyclopenta[c]pyrrol-2(1H)-yl)propoxy)-7-methoxyquinazolin-4-amine], the IC50 lay in the range of 0.001 to 0.1 nM.

For `COc1cc2ncnc(Nc3ccc(F)c(Cl)c3)c2cc1OCCCN1CC2COCC2C1` (centres unmarked) [Example 22, N-(3-chloro-4-fluorophenyl)-7-methoxy-6-(3-(tetrahydro-1H-furo[3,4-c]pyrrol-5(3H)-yl)propoxy) quinazolin-4-amine], the 50% inhibitory concentration (IC50) was in the range of 0.001 to 0.1 nM.

Turning to `COc1cc2ncnc(Nc3ccc(F)c(Cl)c3)c2cc1OCCCN1CC2CCOCC2C1` (centres unmarked) [Example 23, N-(3-chloro-4-fluorophenyl)-6-(3-(hexahydropyrano[3,4-c]pyrrol-2(3H)-yl)propoxy)-7-methoxyquinazolin-4-amine], the 50% inhibitory concentration (IC50) lay within 1 to 10 nM.
